# Laboratory results reported in patent publication US20190137505A1 (THE ARIZONA BOARD OF REGENTS ON BEHALF OF THE UNIVERSITY OF …, priority 2015, published 2019).
# What was measured:
# [1] = biological target: T1, HSA drug site I (Homo sapiens, UniProt P02768); experiment: Prodan displacement assay; format: binding; settings: prodan-HSA 75 μM; 30 min; fluorescence 465 nm emission
# T1 construct: purchased Sigma-Aldrich A3782
# Method: A solution of human serum albumin (HSA) (20 ml at 10 mg/ml) in 1×PBS pH 7.4 was prepared. A slurry (10 ml) of Lipidex-1000 in methanol was buffer exchanged into 1×PBS and the buffer decanted from the aqueous slurry. The HSA solution was added to the slurry and the mixture was rotated at room temperature for 30 min. The Lipidex slurry was completely removed from HSA by plunging through a 0.22 μm filter using a 60 ml syringe. Prodan (25 mg) was dissolved in of 40% ethanol, 60% methanol (5 ml at a final concentration is 5 mg/ml). A portion (10 ml) of delipidated HSA (10 mg/ml) was incubated with 666.7 μl of the prodan solution (1:10 molar ratio HSA:prodan), and this mixture was rotated at room temperature for 30 minutes. The HSA-prodan mixture was placed on dry ice and acetone precipitated by adding 40 ml of acetone at −20° C., which was mixed and centrifuged at 3000×g for 10 min to pellet the precipitated HSA-prodan. Two additional washes of cold acetone were used to remove any free prodan. The HSA pellet was brought to 10 ml with PBS and mixed and resuspended.
# A 2-fold serial dilution of MG in 1×PBS pH 7.4 was prepared starting from a stock solution of 10 mM. […] An aliquot (300 μl) of each reaction was read using a Gemini XPS Fluorescence Microplate Reader (Molecular Devices) in endpoint mode with 360 nm excitation, 420 nm filter cut-off, and 465 nm emission.
# [2] = biological target: T2, glu-Pg (Homo sapiens, UniProt P00747); experiment: Reaction of MG-modified Pg with activating enzymes (STK, tPA, uPA), SDS-PAGE and silver staining; format: biochemical; settings: for Pn heavy and light chain bands versus unmodified gel: MG-modified Pg, higher concentration of MG, up to 90 minutes
# T2 construct: Glu-Pg, uPA, tPA, fibrinogen, and chromogenic substrate for Pn were purchased from Molecular Innovations (Novi, Mich.); purchased Molecular Innovations (Novi, Mich.)
# Method: Physiologically relevant concentrations (Chaplen et al., 1998, Ahmed et al., 2002) of MG were utilized for all LC-MS/MS, silver stain and enzyme inhibition analyses of Pg. glu-Pg (10 μg) was incubated with MG (1-500 μM) at 37° C. for 24 Hrs. Samples for STK assay were further processed before being resolved on a 12% SDS-PAGE gel following removal from 37° C. oven.
# Upon removal from the 37° C. oven, Pg was buffer exchanged in a 3-kDa spin-filter (Amicon YM-3; Millipore)) to ensure the removal of MG from the sample. Following centrifugation, the volume of each sample was brought to 150 μL, and divided into five 30 μL samples for different incubations. STK (3U), tPA (100 nM) or uPA (100 nM) was used per sample. STK, tPA or uPA was incubated with Pg for 0, 5, 15, 30, 60, or 90 min. At the conclusion of the enzyme incubation, samples were denatured with 5% BME and heated for 5 minutes at 100° C. on a heat block prior to being resolved on a 12% SDS-PAGE gel.
# Gels were stained using a modified version of the method from (Blum et al., 1987). Gel was fixed overnight in a solution of 50% MeOH, 12% glacial acetic acid, and 0.0185% formaldehyde. The gel was washed 2×20 min with 50% EtOH followed by 20 minutes with 30% EtOH. The gel was subjected to a pretreatment solution of 0.2 mg/ml of sodium thiosulfate (Na2S2O3) for 1 minute and was rinsed 3×20 sec with MilliQ H2O. […] Following two 20-second MilliQ H2O washes, the gel was immediately developed with a solution of 60 mg/ml Na2CO3, 4 μg/ml sodium thiosulfate, and 0.0185% formaldehyde until protein bands were visible. Upon acceptable staining progression, the gel was rinsed twice for 2 min with MilliQ H2O before the reaction was stopped with a solution of 50% MeOH and 12% glacial acetic acid. Gel was washed and stored in 50% MeOH. Gel was imaged with a ChemiDoc XRS System (BioRad).
# T2 sequence (P00747 20-810 limits assumed): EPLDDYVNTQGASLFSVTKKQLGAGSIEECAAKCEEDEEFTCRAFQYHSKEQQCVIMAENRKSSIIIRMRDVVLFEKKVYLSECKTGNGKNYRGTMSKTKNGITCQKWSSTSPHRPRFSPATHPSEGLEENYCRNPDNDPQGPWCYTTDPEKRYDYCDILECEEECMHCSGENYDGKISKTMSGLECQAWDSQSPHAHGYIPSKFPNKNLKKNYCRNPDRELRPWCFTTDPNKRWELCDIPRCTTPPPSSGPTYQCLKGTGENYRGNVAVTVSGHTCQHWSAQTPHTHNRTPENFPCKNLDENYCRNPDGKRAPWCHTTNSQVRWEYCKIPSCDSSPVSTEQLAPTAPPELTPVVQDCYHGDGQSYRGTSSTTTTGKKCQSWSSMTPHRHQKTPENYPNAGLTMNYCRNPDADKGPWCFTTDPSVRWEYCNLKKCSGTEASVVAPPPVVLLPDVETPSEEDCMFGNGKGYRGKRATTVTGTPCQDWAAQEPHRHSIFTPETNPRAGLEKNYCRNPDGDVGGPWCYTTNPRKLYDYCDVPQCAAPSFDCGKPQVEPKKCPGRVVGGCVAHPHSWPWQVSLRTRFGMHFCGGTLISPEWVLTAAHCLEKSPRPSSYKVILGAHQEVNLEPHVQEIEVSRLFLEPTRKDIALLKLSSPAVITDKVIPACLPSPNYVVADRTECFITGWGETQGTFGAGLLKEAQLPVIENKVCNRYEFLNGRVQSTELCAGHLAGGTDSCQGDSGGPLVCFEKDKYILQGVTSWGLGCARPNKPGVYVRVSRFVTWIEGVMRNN
# T1 sequence (P02768 25-609): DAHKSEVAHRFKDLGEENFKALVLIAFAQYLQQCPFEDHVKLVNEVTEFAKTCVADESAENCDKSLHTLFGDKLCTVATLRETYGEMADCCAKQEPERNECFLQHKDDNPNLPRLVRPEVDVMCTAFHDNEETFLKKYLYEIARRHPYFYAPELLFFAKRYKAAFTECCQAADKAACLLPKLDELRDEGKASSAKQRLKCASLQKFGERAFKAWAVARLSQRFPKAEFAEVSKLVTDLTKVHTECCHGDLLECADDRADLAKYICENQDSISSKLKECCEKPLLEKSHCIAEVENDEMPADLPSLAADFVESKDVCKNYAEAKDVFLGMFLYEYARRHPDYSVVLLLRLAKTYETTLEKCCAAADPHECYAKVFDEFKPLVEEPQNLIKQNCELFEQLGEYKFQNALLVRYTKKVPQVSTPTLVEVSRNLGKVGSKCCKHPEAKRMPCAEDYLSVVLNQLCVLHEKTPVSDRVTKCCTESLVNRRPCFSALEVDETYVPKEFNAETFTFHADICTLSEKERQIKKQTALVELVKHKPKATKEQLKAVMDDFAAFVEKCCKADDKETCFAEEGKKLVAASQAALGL
smiles,measurement,setting,value
"CC(=O)C=O [MG, Methylglyoxal]",MG concentrations that displace prodan from prodan-HSA complex,[1],above 300 μM
same,Activation of Pg by STK (cleavage products on silver-stained gel),"[2]; 24-hr 100 μM MG-modified glu-Pg, STK 0 to 60 min",inhibited
same,Pn heavy and light chain bands versus unmodified gel,[2]; tPA,lesser amounts
same,Pn heavy and light chain bands versus unmodified gel,[2]; uPA,lesser amounts
